The text below walks through data of EP0580161A1, “Prophylactic and therapeutic treatment of Alzheimer's disease” (THE McLEAN HOSPITAL CORPORATION, priority 1992, dated 1994).

Read-outs that look alike come from different tables or passages of the source. Residues, ends and D or L forms follow the SMILES beside them. *: point of attachment. Cbz = O=C(OCc1ccccc1)*

The test system of data set [1] is mouse. To be noted: cited from earlier work.
Data set [2] deals with calpain. To be noted: cited from earlier work.
Data set [3] has as its target T1, m-calpain (Rattus norvegicus, UniProt Q07009).
T1 construct: m-calpain which was extracted and purified from rat brain; from tissue; host or cells: rat brain
T1 sequence (Q07009 20-700 limits assumed): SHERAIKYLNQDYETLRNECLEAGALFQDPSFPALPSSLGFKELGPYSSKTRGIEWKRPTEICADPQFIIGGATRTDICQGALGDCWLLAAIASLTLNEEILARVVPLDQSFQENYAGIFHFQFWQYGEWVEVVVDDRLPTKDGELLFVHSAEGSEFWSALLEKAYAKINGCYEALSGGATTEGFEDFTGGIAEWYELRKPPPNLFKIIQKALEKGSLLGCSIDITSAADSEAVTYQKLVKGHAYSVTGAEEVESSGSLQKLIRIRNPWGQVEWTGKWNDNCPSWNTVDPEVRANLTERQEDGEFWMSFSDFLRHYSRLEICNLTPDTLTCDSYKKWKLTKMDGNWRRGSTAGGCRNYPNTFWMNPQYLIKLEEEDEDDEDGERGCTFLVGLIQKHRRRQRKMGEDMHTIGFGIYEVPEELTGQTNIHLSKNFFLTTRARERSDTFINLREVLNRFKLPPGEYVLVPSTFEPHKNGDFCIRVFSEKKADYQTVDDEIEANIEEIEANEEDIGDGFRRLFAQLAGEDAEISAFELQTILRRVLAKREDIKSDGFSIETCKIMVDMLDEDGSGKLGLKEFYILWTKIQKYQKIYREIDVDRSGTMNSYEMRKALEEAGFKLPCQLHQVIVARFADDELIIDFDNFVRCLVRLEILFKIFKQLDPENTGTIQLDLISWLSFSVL
T1 sequence (Q64537 1-270 partner): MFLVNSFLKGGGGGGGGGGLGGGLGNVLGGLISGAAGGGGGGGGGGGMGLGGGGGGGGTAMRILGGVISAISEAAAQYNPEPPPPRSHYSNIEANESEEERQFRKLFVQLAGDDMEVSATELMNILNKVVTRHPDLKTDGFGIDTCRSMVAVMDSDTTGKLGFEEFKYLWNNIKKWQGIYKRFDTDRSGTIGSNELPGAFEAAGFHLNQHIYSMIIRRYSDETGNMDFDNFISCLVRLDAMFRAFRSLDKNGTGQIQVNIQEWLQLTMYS
In words: calpain inhibitory activity. The class given is biochemical. To be noted: m-calpain extracted and purified from rat brain; read-out: calpain inhibitory activity IC₅₀. The protocol: According to the method previously described (Journal of Biological Chemistry, 259, 12489 (1984)), inhibitory activity of several compounds were determined with m-calpain which was extracted and purified from rat brain by means of the method described in Journal of Biological Chemistry, 259, 3210 (1984). The results are summarized in the following table in which the data for NCO-700 (Arzneimittel Forschung/Drug Research 36, 190 (1986)) and for MDL 28170 (Biochemical and Biophysical Research Communications, 157, 1117 (1988)) are those disclosed in the references.

Data set [4] has as its target T2, calpain I (Homo sapiens, UniProt P07384).
T2 construct: endogenous in cells; host or cells: human erythrocyte
T2 sequence (P07384 1-714): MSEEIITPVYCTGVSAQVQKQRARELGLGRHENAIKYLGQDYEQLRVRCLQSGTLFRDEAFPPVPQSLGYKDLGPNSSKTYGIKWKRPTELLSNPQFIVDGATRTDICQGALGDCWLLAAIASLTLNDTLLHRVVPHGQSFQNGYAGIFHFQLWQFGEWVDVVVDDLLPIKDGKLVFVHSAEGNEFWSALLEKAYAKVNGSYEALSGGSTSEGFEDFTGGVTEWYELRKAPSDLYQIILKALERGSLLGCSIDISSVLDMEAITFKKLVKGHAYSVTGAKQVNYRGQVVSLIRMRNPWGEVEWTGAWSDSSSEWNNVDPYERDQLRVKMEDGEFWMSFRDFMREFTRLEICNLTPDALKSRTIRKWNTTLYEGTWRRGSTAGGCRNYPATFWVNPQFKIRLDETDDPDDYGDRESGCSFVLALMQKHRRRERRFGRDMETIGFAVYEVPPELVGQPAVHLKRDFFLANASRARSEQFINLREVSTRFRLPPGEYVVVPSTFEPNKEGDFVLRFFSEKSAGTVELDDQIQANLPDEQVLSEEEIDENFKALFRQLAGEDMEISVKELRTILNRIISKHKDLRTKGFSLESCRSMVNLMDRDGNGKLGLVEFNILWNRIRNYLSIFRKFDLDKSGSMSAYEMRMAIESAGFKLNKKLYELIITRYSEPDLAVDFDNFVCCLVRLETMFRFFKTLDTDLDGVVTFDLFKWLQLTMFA
T2 sequence (P04632 1-268 partner): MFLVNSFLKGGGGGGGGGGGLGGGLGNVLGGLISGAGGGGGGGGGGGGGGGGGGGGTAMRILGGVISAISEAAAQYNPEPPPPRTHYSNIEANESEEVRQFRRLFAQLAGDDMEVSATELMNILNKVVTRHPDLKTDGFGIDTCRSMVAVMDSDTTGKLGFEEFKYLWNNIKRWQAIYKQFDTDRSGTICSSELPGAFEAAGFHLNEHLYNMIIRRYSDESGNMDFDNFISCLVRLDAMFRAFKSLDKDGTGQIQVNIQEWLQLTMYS
The data set is described as follows: conversion of 80KDa calpain I to 76KDa form in erythrocyte incubated with calcium. The format is cell-based. To be noted: human erythrocyte incubated in the presence of calcium. The source says: Calpain I is partially purified from post-mortem brain. Fraction containing crude calpain I is subjected to electrophoresis, and reacted with monoclonal antibody to human calpain I (Biochemical Journal, 246, 481 (1987); Biochemical Journal, 261, 1039 (1989)) to show three bands. Molecular weights of these bands are 80KDa, 78KDa, and 76KDa, respectively, and are identical to those in erythrocyte (Biochemical Journal, 246, 482 (1987); Biochemical Journal, 261, 1039 (1989)). When human erythrocyte is incubated in the presence of calcium, the 80KDa band disappears and the 76KDa band appears. This reaction is inhibited by leupeptine which is a calpain inhibitor. Furthermore, there exists a good correlation between the amount of the 76KDa protein and the enzyme activity. […] This transformation from 80KDa to 76KDa in the presence of calcium can also be observed with slice specimens of post-mortem human brain.

`NC(N)=NCCCCNC(=O)[C@H](Cc1ccccc1)NC(=O)C1OC1C(=O)O` (some centres unmarked) [estatine A]: the LD₅₀ in data set [1] (ip) is given as more than 400 mg/kg.
As for `CCOC(=O)[C@@H]1O[C@H]1C(=O)NC(CC(C)C)C(=O)N1CCN(Cc2ccc(OC)c(OC)c2OC)CC1.CCOC(=O)[C@@H]1O[C@H]1C(=O)NC(CC(C)C)C(=O)N1CCN(Cc2ccc(OC)c(OC)c2OC)CC1.O=S(=O)(O)O` (some centres unmarked) [NCO-700], the IC50 in data set [2] (value disclosed in Arzneimittel Forschung/Drug Research 36, 190 (1986), read-out: calpain inhibitory activity IC₅₀) was 46000 nM. The LD₅₀ in data set [1] (iv) was 374 mg/kg.
As usually defined, the Ki is the equilibrium dissociation constant of an inhibitor or competing ligand from its target. As to `CC(C)[C@H](NC(=O)OCc1ccccc1)C(=O)N[C@H](C=O)Cc1ccccc1` [MDL 28170] (Cbz-Val-Phe-aldehyde), the Ki in data set [2] (value disclosed in Biochemical and Biophysical Research Communications, 157, 1117 (1988), read-out: calpain inhibitory activity Ki) was 7 nM.
Turning to `CC(=O)NC(CC(C)C)C(=O)NC(CC(C)C)C(=O)NC(C=O)CCCNC(=N)N` (centres unmarked) [leupeptine], the IC50 in data set [3] was found to be 360 nM. For the same molecule, the “disappearance of 80KDa band and appearance of 76KDa band of calpain I” value in data set [4] is “inhibited”.
Consider `CCCCC(C=O)NC(=O)C(CC(C)C)NC(=O)OCc1ccccc1` (centres unmarked) [carpeptine], for which the IC50 in data set [3] was found to be 46 nM.
Consider `CC(C)CCNC(=O)[C@H](CC(C)C)NC(=O)[C@H]1O[C@@H]1C(=O)O` [E-64-c], for which, in data set [1] (po), the LD₅₀ was more than 2000 mg/kg.
In the case of `CCOC(=O)[C@H]1O[C@@H]1C(=O)N[C@@H](CC(C)C)C(=O)NCCC(C)C` [E-64-d], in data set [1] (po), the LD₅₀ is more than 2000 mg/kg.
With `CC(C)CC(NC(=O)[C@H]1O[C@@H]1C(=O)O)C(=O)NCCCCNC(=N)N` (some centres unmarked) [E-64], in data set [3], the IC50 came out at 960 nM. The LD₅₀ in data set [1] (po) is on record as more than 2000 mg/kg.
